Source: PubChem BioAssay (NCI)
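A five-concentration, 48-hour dose response in 96-well plates underlies each endpoint, interpolated linearly between surrounding concentrations. The concentration for 50% growth inhibition is given as GI50. The concentration for full growth arrest is given as TGI.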

Experiments:
Assay in all cases: NCI tumour cell line growth inhibition, 48 h
[1] = test system: MOLT-4 leukemia
[2] = test system: UACC-62 melanoma
[3] = test system: MCF7 breast
[4] = test system: OVCAR-3 ovarian
[5] = test system: SR leukemia
[6] = test system: HT29 colon
[7] = test system: UACC-257 melanoma
[8] = test system: PC-3 prostate
[9] = test system: NCI-H23 lung
[10] = test system: SF-268 CNS

Row | Compound | TGI [1] | TGI [2] | TGI [3] | TGI [4] | TGI [5] | TGI [6] | TGI [7] | TGI [8] | TGI [9] | TGI [10] | GI50 [1] | GI50 [2] | GI50 [3] | GI50 [4] | GI50 [5] | GI50 [6] | GI50 [7] | GI50 [8] | GI50 [10] | GI50 [9]
1 | CC(=O)OCCc1cc2ccccc2oc1=O | > 100 µM | > 100 µM | > 100 µM | > 100 µM | > 100 µM | > 100 µM | > 100 µM | > 100 µM | > 100 µM | > 100 µM |  |  |  |  |  |  |  |  |  | 
2 | COc1cc(OC)c(OC)cc1/C=C\c1ccnc2ccccc12 | > 90.2 µM | > 67.9 µM | > 100 µM | 7.44 µM | > 100 µM | 16.1 µM | > 100 µM | > 100 µM | 23.5 µM | > 86.2 µM |  |  |  |  |  |  |  |  |  | 
3 | Cc1cc(=O)[nH]c2c1C(=O)c1c(C)cc(=O)n(C)c1C2=O | > 3.56 µM | 0.0332 µM | 0.0356 µM | 0.151 µM | > 10 µM | 0.208 µM | 0.0307 µM | 0.391 µM | 0.03 µM | 0.465 µM |  |  |  |  |  |  |  |  |  | 
4 | Cc1ncc([N+](=O)[O-])n1CCOc1ccc(C(=O)/C=C/c2ccc(C(F)(F)F)cc2)cc1 | 6.29 µM | 17.6 µM | 4.01 µM | 5.7 µM | 5.5 µM | 4.23 µM | 16.5 µM | 12.2 µM |  | 8.49 µM | 2.17 µM | 4.73 µM | 1.7 µM | 2.37 µM | 1.97 µM | 1.99 µM | 3.6 µM | 2.25 µM | 2.72 µM | 
5 | O=[N+]([O-])/C=C/c1cn(CCCCCCCCn2cc(/C=C/[N+](=O)[O-])c3ccccc32)c2ccccc12 | > 10 µM | > 10 µM |  | > 10 µM | > 10 µM | > 10 µM | > 10 µM | > 10 µM | > 10 µM | > 10 µM |  |  |  |  |  |  |  |  |  | 
6 | Cc1ccccc1NC(=O)C(=O)CC(=O)c1sc(-n2nc(-c3ccccc3)cc2-c2ccccc2)nc1C | > 100 µM | > 100 µM |  | > 100 µM | > 100 µM | > 100 µM | > 100 µM |  | > 100 µM | > 100 µM |  |  |  |  |  |  |  |  |  | 
7 | O=C(Nc1c(Cl)cc([N+](=O)[O-])cc1Cl)C(=O)C(C(=O)c1ccncc1)C1OC(=O)c2ccccc21 (stereo not given) | > 100 µM | > 100 µM |  | > 100 µM | > 100 µM | > 100 µM | > 100 µM |  | > 100 µM | > 100 µM |  |  |  |  |  |  |  |  |  | 
8 | O=C(O)c1cc2ccc(Cl)cc2c(O)c1C1=CCCCC1 | > 100 µM | 77.5 µM |  | > 100 µM | > 100 µM | > 100 µM | 88.5 µM |  | 95.9 µM | > 100 µM |  |  |  |  |  |  |  |  |  | 
9 | CN(C)CCC(/C=C/c1ccccc1)=N\Nc1c(F)c(F)c(F)c(F)c1F | > 100 µM | > 100 µM |  | > 100 µM | > 100 µM | > 100 µM | > 100 µM |  | > 100 µM | > 100 µM |  |  |  |  |  |  |  |  |  | 
10 | CCOc1ccc(N=Nc2c(-c3ccccc3)nn(C(=O)CC(=O)Nc3ccccc3Cl)c2-c2ccccc2)cc1 | > 100 µM | > 100 µM |  | > 100 µM | > 100 µM | > 100 µM | > 100 µM |  | > 100 µM | > 100 µM |  |  |  |  |  |  |  |  |  | 
11 | COc1cc([N+](=O)[O-])c(S(=O)(=O)O)cc1-[n+]1nc(C(=O)Nc2ccccc2)nn1-c1ccc([N+](=O)[O-])c(S(=O)(=O)[O-])c1 | > 100 µM | > 100 µM | > 100 µM | > 100 µM | > 100 µM | > 100 µM |  | > 100 µM | > 100 µM | > 100 µM |  |  |  |  |  |  |  |  |  | 
12 | COC(=O)C1C(=O)NC2(C)CC1c1ccccc1O2 (stereo not given) | > 100 µM | > 100 µM |  | > 10 µM | > 100 µM | > 100 µM | > 100 µM |  | > 100 µM | > 100 µM |  |  |  |  |  |  |  |  |  | 
13 | CC(C)(C)OC(=O)CC(S(=O)(=O)c1ccccc1)S(=O)(=O)c1ccccc1 | 5.57 µM | 24.1 µM | 33 µM | 3.29 µM | 12.1 µM |  | 15.7 µM | 29.7 µM | 32.1 µM | 34.4 µM | 2.42 µM | 11.4 µM | 13.5 µM | 1.88 µM | 3.1 µM |  | 3.74 µM | 15.1 µM | 16.5 µM | 14.6 µM
14 | CN(C)CN(C)c1nc(N(C)C)nc(N(C)C)n1 | > 100 µM | > 100 µM |  | > 100 µM | > 100 µM | > 100 µM | > 100 µM |  | > 100 µM | > 100 µM |  |  |  |  |  |  |  |  |  | 
15 | CC1(C)O[C@@H](CCl)C[C@@H](C#N)O1 | > 100 µM | > 100 µM |  | > 100 µM | > 100 µM | > 100 µM | > 100 µM |  | > 100 µM | > 100 µM |  |  |  |  |  |  |  |  |  | 
16 | Cc1cc(N(CCC#N)CCC#N)ccc1/C=C1N=C(/C=C\c2ccccc2)N(c2ccc(C(=O)O)cc2)C\1=O | > 100 µM | > 100 µM |  | > 100 µM | > 100 µM | > 100 µM | > 100 µM |  | > 100 µM | > 100 µM |  |  |  |  |  |  |  |  |  | 
17 | O=c1ccc(=O)c2c1c1[nH]c3ccccc3c1c1c(=O)c3ccccc3c(=O)c21 | 7.55 µM | > 10 µM |  | > 10 µM | > 10 µM | > 10 µM | > 10 µM | > 10 µM | > 10 µM | > 10 µM |  |  |  |  |  |  |  |  |  | 
